The nature of data set [1]: logP determination via HPLC retention times (calibration with unbranched alkan-2-ones). In kind it is physicochemical. An excerpt: Die Kalibrierung wurde jeweils mit unverzweigten Alkan-2-onn (3 bis 16 Kohlenstoff Atome) mit bekannten IogP Werten durchgeführt (Bestimmung von den logP Werten über die Retentionszeiten durch lineare Interpolation zwischen zwei bestimmten Alkazionen). Die Lambda-max Werte wurden jeweils in den Maxima der Chromatographie-Signale durch UV Spektren zwischen 190nm und 400nm bestimmt.

For the next data set, the system named is Venturia inaequalis. The data set can be described thus: Venturia test (apple) / protective. The class given is in vivo. To be noted: 100 ppm Wirkstoff; apple plants sprayed protectively; evaluation 10 days after inoculation. An excerpt: Venturia - Test (Apfel) / protektiv
(§1) Zur Herstellung einer zweckmäßigen Wirkstoffzubereitung vermischt man 1 Gewichtsteil Wirkstoff mit den angegebenen Mengen Lösungsmittel und Emulgator und verdünnt das Konzentrat mit Wasser auf die gewünschte Konzentration.
Zur Prüfung auf protektive Wirksamkeit werden junge Pflanzen mit der Wirkstoffzubereitung in der angegebenen Aufwandmenge besprüht. Nach Antrocknen des Spritzbelages werden die Pflanzen mit einer wäßrigen Konidiensuspension des Apfelschorferregers Venturia inaequalis inokuliert und verbleiben dann 1 Tag bei ca. 20°C und 100% relativer Luftfeuchtigkeit in einer Inkubations-kabine.
Die Pflanzen werden dann im Gewächshaus bei ca, 21°C und einer relativen Luftfeuchtigkeit von ca. 90% aufgestellt.
(§2) 10 Tage nach der Inokulation erfolgt die Auswertung. Dabei bedeutet 0% ein Wirkungsgrad, der demjenigen der Kontrolle entspricht, während ein Wirkungsgrad von 100% bedeutet, daß kein Befall beobachtet wird.

The test system of another data set is Botrytis cinerea. The data set can be described thus: Botrytis test (bean) / protective. In kind it is in vivo. To be noted: 250 ppm Wirkstoff; bean plants sprayed protectively; lesion size 2 days after inoculation.
Description: Botrytis - Test (Bohne) / protektiv
as §1
Zur Prüfung auf protektive Wirksamkeit werden junge Pflanzen mit der Wirkstoff-zubereitung in der angegebenen Aufwandmenge besprüht. Nach Antrocknen des Spritzbelages werden auf jedes Blatt 2 kleine mit Botrytis cinerea bewachsene Agarstückchen aufgelegt. Die inokulierten Pflanzen werden in einer abgedunkelten Kammer bei ca. 20°C und 100% relativer Luftfeuchtigkeit aufgestellt.
2 Tage nach der Inokulation wird die Größe der Befallsflecken auf den Blättern ausgewertet. Dabei bedeutet 0% ein Wirkungsgrad, der demjenigen der Kontrolle entspricht, während ein Wirkungsgrad von 100% bedeutet, daß kein Befall beobachtet wird.

In data set [2] the test system is Fusarium nivale (var. majus). The data set can be described thus: Fusarium nivale (var. majus) test (wheat) / protective. The note with it: 1000 ppm Wirkstoff; wheat plants sprayed protectively; evaluation 6 days after inoculation. In kind it is in vivo. An excerpt:
Fusarium nivale (var. majus)-Test (Weizen) / protektiv
(§3) Zur Herstellung einer zweckmäßigen Wirkstoffzubereitung vermischt man 1 Gewichtsteil Wirkstoff mit den angegebenen Mengen Lösungsmittel und Emulgator und verdünnt das Konzentrat mit Wasser auf die gewünschte Konzentration,
Zur Prüfung auf protektive Wirksamkeit werden junge Pflanzen mit der Wirkstoffzubereitung in der angegebenen Aufwandmenge besprüht. Nach Antrocknen des Spritzbelages werden die Pflanzen mit einer Konidiensuspension von Fusarium nivale (var. majus) besprüht.
Die Pflanzen werden in einem Gewächshaus unter lichtdurchlässigen Inkubationshauben bei einer Temperatur von ca.15°C und einer relativen Luftfeuchtigkeit von ca. 100 % aufgestellt.
6 Tage nach der Inokulation erfolgt die Auswertung. Dabei bedeutet 0% ein Wirkungsgrad, der demjenigen der Kontrolle entspricht, während ein Wirkungsgrad von 100% bedeutet, daß kein Befall beobachtet wird.

In the next data set the test system is Pyrenophora teres. The data set can be described thus: Pyrenophora teres test (barley) / protective. To be noted: 1000 ppm Wirkstoff; barley plants sprayed protectively; evaluation 8 days after inoculation. The class given is in vivo.
Description: Pyrenophora teres-Test (Gerste) / protektiv
as §1
Zur Prüfung auf protektive Wirksamkeit werden junge Pflanzen mit der Wirkstoffzubereitung in der angegeben Aufwandmenge besprüht, Nach Antrocknen des Spritzbelages werden die Pflanzen mit einer Konidiensuspension von Pyrenophora teres besprüht. Die Pflanzen verbleiben 48 Stunden bei 20°C und 100 % relativer Luftfeuchtigkeit in einer Inkubationskabine.
Die Pflanzen werden dann in einem Gewächshaus bei einer Temperatur von ca. 20°C und relativen Luftfeuchtigkeit von ca. 80 % aufgestellt.
8 Tage nach der Inokulation erfolgt die Auswertung. Dabei bedeutet 0 % ein Wirkungsgrad, der demjenigen der Kontrolle entspricht, während ein Wirkungsgrad von 100 % bedeutet, daß kein Befall beobachtet wird, […]

Another data set has as its system Leptosphaeria nodorum. The data set can be described thus: Leptosphaeria nodorum test (wheat) / protective. The note with it: 1000 ppm Wirkstoff; wheat plants sprayed protectively; evaluation 10 days after inoculation. The class given is in vivo.
Description: Leptosphaeria nodorum-Test (Weizen) / protektiv
as §3
Zur Prüfung auf protektive Wirksamkeit werden junge Pflanzen mit der Wirkstoffzubereitung in der angegebenen Aufwandmenge besprüht Nach Antrocknen des Spritzbelages werden die Pflanzen mit einer Sporensuspension von Leptosphaeria nodorum besprüht, Die Pflanzen verbleiben 48 Stunden bei 20°C und 100 % relativer Luftfeuchtigkeit in einer Inkubationskabine.
Die Pflanzen werden in einem Gewächshaus bei einer Temperatur von ca. 20°C und einer relativen Luftfeuchtigkeit von 80 % aufgestellt.
as §2

In data set [3] the test system is Erysiphe graminis f.sp, hordei. The data set can be described thus: Erysiphe test (barley) / protective. The note with it: 1000 ppm Wirkstoff; barley plants sprayed protectively; evaluation 7 days after inoculation. The class given is in vivo.
Description: Erysiphe-Test (Gerste) / protektiv
as §1
Zur Prüfung auf protektive Wirksamkeit besprüht man junge Pflanzen mit der Wirkstoffzubereitung in der angegebenen Aufwandmenge.
Nach Antrocknen des Spritzbelages werden die Pflanzen mit Sporen von Erysiphe graminis f.sp, hordei bestäubt.
Die Pflanzen werden in einem Gewächshaus bei einer Temperatur von ca. 20°C und einer relativen Luftfeuchtigkeit von ca. 80 % aufgestellt, um die Entwicklung von Mehltaupusteln zu begünstigen.
7 Tage nach der Inokulation erfolgt die Auswertung, Dabei bedeutet 0 % ein Wirkungsgrad, der demjenigen der Kontrolle entspricht, während ein Wirkungsgrad von 100 % bedeutet, daß kein Befall beobachtet wird.

[4] abbreviates: from retention times, linear interpolation between alkan-2-ones.
[5] abbreviates: HPLC on reversed-phase C 18 columns, EEC Directive 79/831 Annex V.A8, acidic aqueous mobile phase / acetonitrile, linear gradient 10% to 95% acetonitrile.

One may read the chromatographic logP as lipophilicity estimated from chromatographic retention. Read a low chromatographic logP as a more hydrophilic compound.

For the compound `Cc1n[nH]c(=O)c(-c2cc(F)c(F)cc2F)c1-c1cccs1` [5-(2-thienyl)-4-(2,4,5-trifluorphenyl)-6-methylpyridazin-3(2H)-on], the chromatographic logP in data set [1] (setting [4]) came out at 2.32.
The same measure, in the same setting: the figure for `Cc1n[nH]c(=O)c(-c2c(F)cccc2F)c1-c1ccncc1` [5-(4-Pyridyl)4-(2,6-difluorphenyl)-6-methylpyridazin-3(2H)-on] is 0.93; for `Cc1ccc(-c2c(C)n[nH]c(=O)c2-c2cc(F)c(F)cc2F)nc1C` [5-(5,6-Dimethyl-2-pyridyl)-4-(2,4,5-trifluorphenyl)-6-methylpyridazin-3(2H)-on] it is 2.06.
`Cc1ccc(-c2c(C)n[nH]c(=O)c2-c2c(Cl)cccc2Cl)nc1C` [5-(5,6-Dimethyl-2-pyridyl)-4-(2,6-dichlorphenyl)-6-methylpyridazin-3(2H)-on] came in with a chromatographic logP in data set [1] (setting [4]) of 2.11.
Same read-out and setting: under `Cc1n[nH]c(=O)c(-c2cccc3c2OC(F)(F)O3)c1-c1ccc(Cl)s1` [5-(5-Chlor-2-thienyl)-4-(2,2-difluor-1,3-benzodioxol-4-yl)-6-methylpyridazin-3(2H)-on] stands 3.18; under `Cc1n[nH]c(=O)c(-c2cc(F)c(F)cc2F)c1-c1ccc(Cl)s1` [5-(5-Chlor-2-thienyl)-4-(2,4,5-trifluorphanyl)-6-methylpyridazin-3(2H)-on], 2.88.
On the same count and under the same terms, under `Cc1n[nH]c(=O)c(-c2c(Cl)cccc2Cl)c1-c1ccc(Cl)s1` [5-(5-Chlor-2-thienyl)-4-(2,6-dichlorphenyl)-6-methylpyridazin-3(2H)-on] stands 3.11.
Still for that read-out and setting: under `Cc1n[nH]c(=O)c(-c2ccccc2F)c1-c1ccc(Cl)s1` [5-(5-Chlor-2-thienyl)-4-(2-fluorphenyl)-6-methylpyridazin-3(2H)-on] stands 2.64; under `Cc1ccc(-c2c(C)n[nH]c(=O)c2-c2c(F)cccc2F)o1` [5-(5-Methyl-2-furyl)-4-(2,6-difluorphenyl)-6-methylpyridazin-3(2H)-on], 2.19.
Regarding `Cc1nnc(Cl)c(-c2ccc(F)cc2Cl)c1-c1cccs1` [Beispiel 37], the Wirkungsgrad with Venturia inaequalis and with Botrytis cinerea was at least 70% each time. The chromatographic logP in data set [1] (setting [5]) amounted to 3.45.
Take `Cc1nnc(Cl)c(-c2ccccc2Cl)c1-c1ccc(Cl)s1` [Beispiel 58]: the logP in data set [1] (setting [5]) is 4,01. For the same compound, in data set [1] (setting [4]), the chromatographic logP was 4.01.
Regarding `Cc1nnc(Cl)c(-c2c(F)cccc2Cl)c1-c1ccc(Cl)s1` [Beispiel 94], the Wirkungsgrad in the data set on Venturia inaequalis and with Botrytis cinerea was at least 70% throughout. In data set [1] (setting [5]), this compound gave a chromatographic logP of 4.16.
Take `Cc1nnc(Cl)c(-c2c(F)cccc2F)c1-c1cccs1` [Beispiel 100]: the Wirkungsgrad (in data set [2]; in the data set with Pyrenophora teres; in the data set on Leptosphaeria nodorum; in the data set on Venturia inaequalis; in data set [3]; with Botrytis cinerea) was at least 70% throughout. Besides, the chromatographic logP in data set [1] (setting [5]) came to 3.12.
In the data set with Venturia inaequalis, `Cc1ccc(-c2c(C)nnc(Cl)c2-c2c(F)cccc2F)nc1C` [Beispiel 101] yielded a Wirkungsgrad of at least 70%. This compound also yielded a chromatographic logP in data set [1] (setting [5]) of 2.88.
Turning to `Cc1nnc(Cl)c(-c2c(F)cccc2F)c1-c1ccc(Cl)s1` [Beispiel 103], the Wirkungsgrad in the data set with Venturia inaequalis and with Botrytis cinerea was at least 70% each time. The chromatographic logP in data set [1] (setting [5]) was determined as 3.84.
Take `Cc1ccccc1-c1c(Cl)nnc(C)c1-c1cccs1` [Beispiel 190]: the chromatographic logP in data set [1] (HPLC on reversed-phase C 18 columns per EEC Directive 79/831 Annex V.A8, acidic mobile phase (0.1% aqueous formic or phosphoric acid) and acetonitrile, linear gradient 10% to 95% acetonitrile) stood at 3.18.
Take `Cc1nnc(Cl)c(-c2cccc3c2OC(F)(F)O3)c1-c1ccc(Cl)s1` [compound 1]: in data set [1] (setting [5]), the chromatographic logP stood at 4.33.
Still for that read-out and setting: the figure for `Cc1nnc(Cl)c(-c2ccc(F)cc2Br)c1-c1ccc(Cl)s1` [compound 10] is 4.28; for `Cc1nnc(Cl)c(-c2ccc(F)cc2Br)c1-c1cccs1` [compound 11] it is 3.56; for `Cc1nnc(Cl)c(-c2ccc(F)cc2Cl)c1-c1ccc(Cl)s1` [compound 38] it is 4.21.
Still for that read-out and setting: the figure for `Cc1nnc(Cl)c(-c2c(Cl)cccc2Cl)c1-c1ccc(Cl)s1` [compound 46] is 4.44.
On the same count and under the same terms, the figure for `Cc1ccc(-c2c(C)nnc(Cl)c2-c2c(Cl)cccc2Cl)nc1C` [compound 47] is 4.16; for `Cc1nnc(Cl)c(-c2c(F)cccc2Cl)c1-c1cccs1` [compound 55] it is 3.33; for `Cc1nnc(Cl)c(-c2ccccc2Cl)c1-c1cccs1` [compound 59] it is 3.29.
`Cc1nnc(Cl)c(-c2c(F)cc(F)cc2F)c1-c1ccc(Cl)s1` [compound 67]: the chromatographic logP in data set [1] (setting [5]) worked out at 4.11.
In turn, `Cc1nnc(Cl)c(-c2cc(F)c(F)cc2F)c1-c1cccs1` [compound 85] showed a chromatographic logP in data set [1] (setting [5]) of 3.39.
Same read-out and setting: under `Cc1nnc(Cl)c(-c2cc(F)c(F)cc2F)c1-c1ccc(Cl)s1` [compound 86] stands 4.01.
Still for that read-out and setting: under `Cc1ccc(-c2c(C)nnc(Cl)c2-c2cc(F)c(F)cc2F)nc1C` [compound 87] stands 3.15; under `Cc1nnc(Cl)c(-c2c(F)cccc2F)c1-c1ccncc1` [compound 102], 2.08.
As to `Cc1ccc(-c2c(C)nnc(Cl)c2-c2c(F)cccc2F)o1` [compound 104], the chromatographic logP in data set [1] (setting [5]) was found to be 3.26.
The same measure, in the same setting: the figure for `Cc1nnc(Cl)c(-c2c(F)cccc2F)c1-c1nccs1` [compound 105] is 2.51; for `Cc1nnc(Cl)c(-c2ccccc2F)c1-c1ccc(Cl)s1` [compound 118] it is 3.7; for `Cc1nnc(Cl)c(-c2cc(F)ccc2F)c1-c1ccc(Cl)s1` [compound 119] it is 3.42.
In data set [1] (setting [5]), `Cc1nnc(Cl)c(-c2cc(Cl)ccc2F)c1-c1ccc(Cl)s1` [compound 120] gave a chromatographic logP of 4.16.
On the same count and under the same terms, under `Cc1nnc(Cl)c(-c2ccccc2F)c1-c1cccs1` [compound 121] stands 3.05; under `Cc1nnc(Cl)c(-c2cccc(Cl)c2)c1-c1cccs1` [compound 172], 3.34; under `Cc1nnc(Cl)c(-c2cccc(Cl)c2)c1-c1ccc(Cl)s1` [compound 173], 4.07.
Same read-out and setting: the figure for `COc1ccccc1-c1c(Cl)nnc(C)c1-c1ccc(Cl)s1` [compound 182] is 3.65.

The values above are taken from patent EP1972623A1, “Arylpyridazines as fungicides” (Bayer CropScience AG, priority 2007, dated 2008).
